Data published in patent US12558356B2, “Immunophilin binding agents and uses thereof” (The Regents of the University of California, priority 2019, dated 2026).
Like-named read-outs stand apart in the source and are kept apart here.

How the values were obtained:
p-S6 level in MCF7 cells = experiment: Western blot of p-S6 level in MCF7 cells after combination treatment with Rapa/Rapalink and candidate compound (blockade score); type: cell-based; settings: 24 h, p-S6 level as fraction of DMSO control; for Rapamycin Blockade: 10 nM Rapa + 10 μM candidate compound; for RapaLink-1 Blockade: 10 nM Rapalink + 10 μM candidate compound
FKBP12 = FKBP12 (Homo sapiens (Human), UniProt P62942); experiment: FKBP12 binding assay (fluorescence polarization)
Sequence of FKBP12 (P62942 whole entry): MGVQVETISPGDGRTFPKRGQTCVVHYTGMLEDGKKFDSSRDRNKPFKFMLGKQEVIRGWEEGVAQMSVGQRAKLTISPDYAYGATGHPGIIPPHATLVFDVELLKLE

[1] = system: mTOR signaling in brain and skeletal muscle; experiment: In vivo brain/periphery mTOR inhibition in mouse model, blocker combined with rapamycin or RapaLink-1; settings: combination with rapamycin; muscle and brain
[2] = system: p-Tyr signaling in Jurkat cells; experiment: Phosphotyrosine / TCR signaling in Jurkat cells (Western blot); type: cell-based; settings: Jurkat cells, 100 nM, 1 h, washed 3 times with PBS
Method: Jurkat cells (1×10^6/mL) were treated with 100 nM of the indicated compounds for 1 h, then were washed 3 times with PBS and resuspended in culture media. Samples were taken at the indicated time points and lysed immediately.

Row | Kd (FKBP12; read-out: Kd FKBP12) [nM] | Molecule | Rapamycin Blockade (p-S6 level in MCF7 cells) | RapaLink-1 Blockade (p-S6 level in MCF7 cells) | other results
1 |  | CCC(C)(C)C(=O)C(=O)N1CCCC[C@H]1C(=O)O[C@H](CCc1ccc(OC)c(OC)c1)c1cccc(N)c1 [SLF, reference compound] | 3 (>70%) | 0 (<20%) | 
2 | 95 | CCC(C)(C)C(=O)C(=O)N1CCCC[C@H]1C(=O)O[C@H](CCc1ccc(OC)c(OC)c1)c1cccc(NC(=O)C[N+](C)(C)C)c1 [ZZY01-025] | 1 (20-40%) |  | 
3 | 9.4 | CCC(C)(C)C(=O)C(=O)N1CCCC[C@H]1C(=O)O[C@H](CCc1ccc(OC)c(OC)c1)c1cccc(OCCN)c1 [ZZY01-038] | 1 (20-40%) |  | 
4 | 21.3 | CCC(C)(C)C(=O)C(=O)N1CCCC[C@H]1C(=O)O[C@H](CCc1ccc(OC)c(OC)c1)c1cccc(NC(=O)CN)c1 [ZZY01-040] | 3 (>70%) |  | 
5 | 15 | CCC(C)(C)C(=O)C(=O)N1CCCC[C@H]1C(=O)O[C@H](CCc1ccc(OC)c(OC)c1)c1cccc(NC(=O)CN2CCOCC2)c1 [ZZY01-043] | 3 (>70%) |  | 
6 | 12.7 | CCC(C)(C)C(=O)C(=O)N1CCCC[C@H]1C(=O)O[C@H](CCc1ccc(OC)c(OC)c1)c1cccc(NC(=O)CN(C)C)c1 [ZZY01-044] | 3 (>70%) |  | 
7 |  | CCC(C)(C)C(=O)C(=O)N1CCCC[C@H]1C(=O)O[C@H](CCc1ccc(OC)c(OC)c1)c1cccc(NC(=O)[C@H](C)N)c1 [ZZY01-059] | 3 (>70%) |  | 
8 |  | CCC(C)(C)C(=O)C(=O)N1CCCC[C@H]1C(=O)O[C@H](CCc1ccc(OC)c(OC)c1)c1cccc(NCC(=O)O)c1 [ZZY01-060A] | 0 (<20%) |  | 
9 | 75 | CCC(C)(C)C(=O)C(=O)N1CCCC[C@H]1C(=O)O[C@H](CCc1ccc(OC)c(OC)c1)c1cccc(N(CC(=O)O)CC(=O)O)c1 [ZZY01-060B] | 1 (20-40%) |  | 
10 | 37.8 | CCC(C)(C)C(=O)C(=O)N1CCCC[C@H]1C(=O)O[C@H](CCc1ccc(OC)c(OC)c1)c1cccc(NC(=O)CNC(=N)N)c1 [ZZY01-065] | 2 (40%-70%) |  | 
11 | 21 | CCC(C)(C)C(=O)C(=O)N1CCCC[C@H]1C(=O)O[C@H](CCc1ccc(OC)c(OC)c1)c1cccc(NC(=O)CNN)c1 [ZZY01-070] | 1 (20-40%) |  | 
12 | 12.5 | CCC(C)(C)C(=O)C(=O)N1CCCC[C@H]1C(=O)O[C@H](CCc1ccc(OC)c(OC)c1)c1cccc(NC(=O)CN2CCN(C)CC2)c1 [ZZY01-072] | 3 (>70%) |  | 
13 |  | CCC(C)(C)C(=O)C(=O)N1CCCC[C@H]1C(=O)O[C@H](CCc1ccc(OC)c(OC)c1)c1cccc(NC(=O)CCC(=O)O)c1 [ZZY01-083] | 1 (20-40%) |  | 
14 | 64 | C=CC(=O)Nc1cccc([C@@H](CCc2ccc(OC)c(OC)c2)OC(=O)[C@@H]2CCCCN2C(=O)C(=O)C(C)(C)CC)c1 [ZZY02-014] | 3 (>70%) |  | 
15 | 36.4 | CCC(C)(C)C(=O)C(=O)N1CCCC[C@H]1C(=O)O[C@H](CCc1ccc(OC)c(OC)c1)c1cccc(NCCN)c1 [ZZY02-032] | 0 (<20%) |  | 
16 |  | CCC(C)(C)C(=O)C(=O)N1CCCC[C@H]1C(=O)O[C@H](CCc1ccc(OC)c(OC)c1)c1cccc(NC(=O)CCl)c1 [ZZY02-033] | 0 (<20%) |  | 
17 | 63.8 | CCC(C)(C)C(=O)C(=O)N1CCCC[C@H]1C(=O)O[C@H](CCc1ccc(OC)c(OC)c1)c1cccc(NC(=O)CS)c1 [ZZY02-055] | 0 (<20%) |  | 
18 | 6 | CCC(C)(C)C(=O)C(=O)N1CCCC[C@H]1C(=O)O[C@H](CCc1ccc(OC)c(OC)c1)c1cccc(NC(=O)CN=[N+]=[N-])c1 [ZZY02-096] | 2 (40%-70%) |  | 

Row | Kd (FKBP12; read-out: Kd FKBP12) [nM] | Molecule | Rapamycin Blockade (p-S6 level in MCF7 cells) | RapaLink-1 Blockade (p-S6 level in MCF7 cells) | other results
19 | 43.7 | CCC(C)(C)C(=O)C(=O)N1CCCC[C@H]1C(=O)O[C@H](CCc1ccc(OC)c(OC)c1)c1cccc(NC(=O)CCOCCOCCN)c1 [ZZY03-077] | 3 (>70%) |  | 
20 | 31.1 | CCC(C)(C)C(=O)C(=O)N1CCCC[C@H]1C(=O)O[C@H](CCc1ccc(OC)c(OC)c1)c1cccc(NC(=O)Cc2ccccn2)c1 [ZZY03-083] | 3 (>70%) | 0 (<20%) | 
21 | 18.6 | CCC(C)(C)C(=O)C(=O)N1CCCC[C@H]1C(=O)O[C@H](CCc1ccc(OC)c(OC)c1)c1cccc(NC(=O)CCOCCN)c1 [ZZY03-084] | 2 (40%-70%) |  | 
22 | 28.8 | CCC(C)(C)C(=O)C(=O)N1CCCC[C@H]1C(=O)O[C@H](CCc1ccc(OC)c(OC)c1)c1cccc(NC(=O)Cc2cccc[n+]2[O-])c1 [ZZY03-087] | 3 (>70%) | 0 (<20%) | In Vivo [1]: Blocks rapamycin in muscle, potentiates rapamycin in brain
23 | 37.3 | CCC(C)(C)C(=O)C(=O)N1CCCC[C@H]1C(=O)O[C@H](CCc1ccc(OC)c(OC)c1)c1cccc(NC(=O)CNc2ccccn2)c1 [ZZY03-091] | 2 (40%-70%) |  | 
24 |  | CO[C@H]1C/C(C)=C/[C@@H](CCCSCCN)C(=O)C[C@H](O)[C@@H](C)[C@@H](/C(C)=C/[C@@H]2CC[C@@H](O)[C@H](OC)C2)OC(=O)[C@@H]2CCCCN2C(=O)C(=O)[C@]2(O)O[C@H]([C@@H](OC)C1)[C@@H](OC)C[C@H]2C [ZZY05-011] | 3 (>70%) | 3 (>70%) | Kd (FKBP12): 0.69 nM
25 |  | CO[C@H]1C/C(C)=C/[C@@H](C/C=C/C(=O)O)C(=O)C[C@H](O)[C@@H](C)[C@@H](/C(C)=C/[C@@H]2CC[C@@H](O)[C@H](OC)C2)OC(=O)[C@@H]2CCCCN2C(=O)C(=O)[C@]2(O)O[C@H]([C@@H](OC)C1)[C@@H](OC)C[C@H]2C [ZZY05-012] | 0 (<20%) | 0 (<20%) | Kd (FKBP12): 0.39 nM
26 |  | CO[C@H]1C/C(C)=C/[C@@H](CCCSCCN(C)C)C(=O)C[C@H](O)[C@@H](C)[C@@H](/C(C)=C/[C@@H]2CC[C@@H](O)[C@H](OC)C2)OC(=O)[C@@H]2CCCCN2C(=O)C(=O)[C@]2(O)O[C@H]([C@@H](OC)C1)[C@@H](OC)C[C@H]2C [ZZY05-013] | 3 (>70%) | 3 (>70%) | Kd (FKBP12): 1.36 nM
27 | 1.49 | CO[C@H]1C/C(C)=C/[C@@H](CCCC(=O)O)C(=O)C[C@H](O)[C@@H](C)[C@@H](/C(C)=C/[C@@H]2CC[C@@H](O)[C@H](OC)C2)OC(=O)[C@@H]2CCCCN2C(=O)C(=O)[C@]2(O)O[C@H]([C@@H](OC)C1)[C@@H](OC)C[C@H]2C [ZZY05-020] | 2 (40%-70%) | 0 (<20%) | 
28 |  | CO[C@H]1C/C(C)=C/[C@@H](CCCC(=O)N2CCN(c3cc(Nc4ncc(C(=O)Nc5c(C)cccc5Cl)s4)nc(C)n3)CC2)C(=O)C[C@H](O)[C@@H](C)[C@@H](/C(C)=C/[C@@H]2CC[C@@H](O)[C@H](OC)C2)OC(=O)[C@@H]2CCCCN2C(=O)C(=O)[C@]2(O)O[C@H]([C@@H](OC)C1)[C@@H](OC)C[C@H]2C [ZZY05-022] |  |  | durability of effect after washout [2]: durable after washout
29 |  | CO[C@H]1C/C(C)=C/[C@@H](CCCSC[C@H](N)C(=O)O)C(=O)C[C@H](O)[C@@H](C)[C@@H](/C(C)=C/[C@@H]2CC[C@@H](O)[C@H](OC)C2)OC(=O)[C@@H]2CCCCN2C(=O)C(=O)[C@]2(O)O[C@H]([C@@H](OC)C1)[C@@H](OC)C[C@H]2C [ZZY05-037] |  | 1 (20-40%) | Kd (FKBP12): 8.7 nM
30 |  | CO[C@H]1C/C(C)=C/[C@@H](C/C=C/c2ccncc2)C(=O)C[C@H](O)[C@@H](C)[C@@H](/C(C)=C/[C@@H]2CC[C@@H](O)[C@H](OC)C2)OC(=O)[C@@H]2CCCCN2C(=O)C(=O)[C@]2(O)O[C@H]([C@@H](OC)C1)[C@@H](OC)C[C@H]2C [ZZY05-050] |  | 3 (>70%) | Kd (FKBP12): 3.6 nM
31 | 0.62 | CO[C@H]1C/C(C)=C/[C@@H](C/C=C/c2cccc[n+]2[O-])C(=O)C[C@H](O)[C@@H](C)[C@@H](/C(C)=C/[C@@H]2CC[C@@H](O)[C@H](OC)C2)OC(=O)[C@@H]2CCCCN2C(=O)C(=O)[C@]2(O)O[C@H]([C@@H](OC)C1)[C@@H](OC)C[C@H]2C [ZZY05-060] |  | 1 (20-40%) | 
32 | 0.21 | CO[C@H]1C/C(C)=C/[C@@H](C/C=C/c2cc[n+]([O-])cc2)C(=O)C[C@H](O)[C@@H](C)[C@@H](/C(C)=C/[C@@H]2CC[C@@H](O)[C@H](OC)C2)OC(=O)[C@@H]2CCCCN2C(=O)C(=O)[C@]2(O)O[C@H]([C@@H](OC)C1)[C@@H](OC)C[C@H]2C [ZZY05-061] |  | 0 (<20%) | 
33 | 0.2 | CO[C@H]1C/C(C)=C/[C@@H](CCCC(=O)Nc2ccccn2)C(=O)C[C@H](O)[C@@H](C)[C@@H](/C(C)=C/[C@@H]2CC[C@@H](O)[C@H](OC)C2)OC(=O)[C@@H]2CCCCN2C(=O)C(=O)[C@]2(O)O[C@H]([C@@H](OC)C1)[C@@H](OC)C[C@H]2C [ZZY05-064] |  | 3 (>70%) | 
34 |  | CO[C@H]1C/C(C)=C/[C@@H](CCCc2cc[n+]([O-])cc2)C(=O)C[C@H](O)[C@@H](C)[C@@H](/C(C)=C/[C@@H]2CC[C@@H](O)[C@H](OC)C2)OC(=O)[C@@H]2CCCCN2C(=O)C(=O)[C@]2(O)O[C@H]([C@@H](OC)C1)[C@@H](OC)C[C@H]2C [ZZY05-086] |  | 3 (>70%) | Kd (FKBP12): 1.6 nM
35 |  | tacrolimus [FK506, reference compound] | 3 (>70%) | 3 (>70%) | 

Row | Molecule | Kd (FKBP12; read-out: Kd FKBP12) [nM] | Rapamycin Blockade (p-S6 level in MCF7 cells) | RapaLink-1 Blockade (p-S6 level in MCF7 cells) | other results
36 | CCC(C)(C)C(=O)C(=O)N1CCCC[C@H]1C(=O)O[C@H](CCc1ccc(OC)c(OC)c1)c1cccc(OCC(=O)O)c1 [ZZY01-041] | 38 | 0 (<20%) |  | 
